In patent US6753456B2, “Point mutant mice with hypersensitive alpha 4 nicotinic receptors: dopaminergic pathology and increased anxiety” (California Institute of Technology, priority 2000, dated 2004):
“Also recorded” adds a separate entry of the source. Where a name gives a salt, the structure may show the parent alone.

Experiments:
[1] = target: T1, mutated (α4 Leu9′Ser) rat α4β2 receptors (Rattus norvegicus, UniProt P09483+P12390, L285S); experiment: Two-electrode voltage clamp, agonist concentration-response of mutated α4β2 receptors expressed in Xenopus oocytes; type: cell-based
T1 construct: expressed in transfected cells; host or cells: Xenopus oocytes (capped mRNA injected, α4L9′S/β2 1:1)
T1 sequence (P09483 31-630 L285S): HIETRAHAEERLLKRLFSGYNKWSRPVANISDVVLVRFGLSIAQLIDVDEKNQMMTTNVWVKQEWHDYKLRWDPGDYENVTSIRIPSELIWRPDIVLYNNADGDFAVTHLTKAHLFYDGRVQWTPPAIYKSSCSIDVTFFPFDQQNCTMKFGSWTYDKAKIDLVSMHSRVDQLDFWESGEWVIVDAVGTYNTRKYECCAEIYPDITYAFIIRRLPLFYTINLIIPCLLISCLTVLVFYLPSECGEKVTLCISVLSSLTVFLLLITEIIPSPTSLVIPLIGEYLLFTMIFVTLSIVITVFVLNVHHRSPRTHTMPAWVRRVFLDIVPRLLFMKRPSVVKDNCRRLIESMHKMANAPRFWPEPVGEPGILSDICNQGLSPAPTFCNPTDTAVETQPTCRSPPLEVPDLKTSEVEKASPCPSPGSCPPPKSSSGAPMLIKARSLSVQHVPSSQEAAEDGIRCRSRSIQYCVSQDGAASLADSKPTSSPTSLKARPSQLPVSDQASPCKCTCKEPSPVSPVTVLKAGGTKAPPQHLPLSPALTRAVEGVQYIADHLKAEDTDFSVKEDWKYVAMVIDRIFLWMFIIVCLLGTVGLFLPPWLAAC
T1 sequence (P12390 25-500): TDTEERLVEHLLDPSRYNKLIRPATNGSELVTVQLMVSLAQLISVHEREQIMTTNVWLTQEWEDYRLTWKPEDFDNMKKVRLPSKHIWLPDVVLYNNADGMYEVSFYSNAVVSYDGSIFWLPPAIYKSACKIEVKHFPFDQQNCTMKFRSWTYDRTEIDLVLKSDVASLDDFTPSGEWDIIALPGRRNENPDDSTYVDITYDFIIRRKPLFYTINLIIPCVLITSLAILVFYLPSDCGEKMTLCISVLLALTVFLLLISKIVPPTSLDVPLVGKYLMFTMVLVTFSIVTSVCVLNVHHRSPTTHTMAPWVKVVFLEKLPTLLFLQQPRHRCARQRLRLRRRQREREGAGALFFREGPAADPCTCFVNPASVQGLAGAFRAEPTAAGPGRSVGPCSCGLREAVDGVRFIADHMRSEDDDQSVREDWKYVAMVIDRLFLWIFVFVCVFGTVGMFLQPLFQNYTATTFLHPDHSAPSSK
Procedure: FIG. 1C, the agonist is choline.
Xenopus Oocyte Injections and Electrophysiology The α4 and β2 subunits were subcloned into pAMV-PA (Nowak, et al.(1998) Methods Enzymol. 293, 504-529). Capped mRNA transcripts were prepared, and α4/β2 (2 ng, 1:1) or α4L9′/β2 (0.2-0.5 ng, 1:1) were microinjected into Xenopus oocytes. Twenty-four to seventy-two hours later, two-electrode voltage clamp recordings were made in solutions containing zero […].
Chimeric males from the resulting two mouse lines, neo-intact and neo-deleted, were bred to C57BL/6 females to generate animals heterozygous for the mutation, and mice were tested for the mutation by sequencing of genomic DNA (FIG. 1F).

α4β2 receptors = settings: rats, Felix and Levin (1997); cited from earlier work
[2] = tested on: WT and heterozygous (het) neo-intact mutants; experiment: Ambulation (locomotion) of WT and heterozygous neo-intact mice after drug injection; type: in vivo, mouse
[3] = tested on: heterozygous L9′S α4 and wild type mice; experiment: Behavioral scoring of nicotine-induced seizure activity and Straub tail; type: in vivo, mouse
From the text: To pharmacologically characterize the L9′S mutation effects on seizure induction in the α4 mice behavioral responses to pharmacologic stimulation were videotaped and scored.

nAChRs = settings: Damaj, et al. (1999); cited from earlier work
heterozygous and WT mice = settings: nicotine 0.1 mg/kg
From the text: Mouse electroencephalography can also be used to examine the susceptibility of transgenic mice to seizures. A surgical and electrophysiological rig that allows simultaneous video-electroencephalographic (EEG) recordings in free moving animals can be used. For EEG electrode implants, mice are anesthetized with a ketamine-xylazine mixture, 0.2 mm-diameter tungsten wire electrodes are positioned through drilled holes in the cranium in a twisted pair configuration and placed stereotactically within different regions of the brain. A three-pin microconnector (ground electrode plus two recording electrodes) is cemented to the skull surface. Following surgery, mice are allowed to recover for 48 hours.

[4] = tested on: cells in acute midbrain slices from α4 mutant heterozygous and wild type animals; experiment: Electrophysiology on acute midbrain slices; type: cell-based, mouse; settings: heterozygous vs wild type
From the text: Electrophysiological studies on brain slices derived from transgenic α4 mice. Slices obtained from frontal cerebral cortex, hippocampus, and midbrain can be used for field and intracellular recordings. Field recordings serve to determine whether various compounds cause or block synchronized firing in these neuronal ensembles. Whole-cell patch recordings provide information regarding activation and/or desensitization of nAChRs in individual neurons when exposed to various agonists and antagonists, as well as the effects of these compounds on firing rates. Because interneurons express most of the α4 receptors, recordings from interneurons and IPSC's in pyramidal cells are useful for study.

[5] = tested on: neurons from transgenic L9′S and WT mice; settings: 10 μM nicotine
From the text: The paradigms described above can be implemented in slices derived from other brain areas such as the cortex and the midbrain. Large inhibitory and excitatory potentials can be recorded from pyramidal cells in cortical slices (Hasselmo and Barkai (1995). J. Neurosci 15, 6592-604).

CCN(CC)CCCCCCCCOC(=O)c1cc(OC)c(OC)c(OC)c1.Cl [8-(diethylamino)octyl 3,4,5-trimethoxyben-zoate hydrochloride]
effect on increased leakage currents in oocytes expressing α4L9′S/β2 receptor ([1]; 500 nM, nine oocytes): blockable

CO[C@H]1CC=C2CCN3CCC4=C(CC(=O)OC4)[C@]23C1 [DHβE, Dihydro-β-erythroidine]
seizure induction (α4β2 receptors): induce seizures

C[C@H](N)Cc1ccccc1 [amphetamine, d-amphetamine sulfate]
locomotor response in young mice ([2]; 5 mg/kg i.p., about 3-month-old WT and heterozygous mice): stimulated locomotion | locomotor response of heterozygous mice at 11 months vs 3 months ([2]; 5 mg/kg i.p., heterozygous, 11 months of age): declines significantly; also recorded: reduced amphetamine-induced locomotion

C[N+](C)(C)CCO [choline]
activation of the mutated receptor, % of maximal values ([1]; choline about 10 μM): 20%

CNC1(C)C2CCC(C2)C1(C)C (stereo not shown) [mecamylamine]
effect on nicotine effects (seizures, Straub tail) ([3]; mecamylamine 2 mg/kg, both hets and WT): partially blocked | block of nicotine-induced seizures (nAChRs): effective nicotine-induced seizure blocker

CN1CCCC1c1cccnc1 (stereo not shown) [nicotine]
doses required for severe tonic-clonic seizures in WT animals ([3]; WT): > 10 mg/kg | threshold to nicotine-induced seizures in L9′S knock-in mice ([3]; summary statement): reduced threshold | sensitivity of L9′S nAChRs expressed in frog oocytes to the ligand ([1]; summary statement): increased sensitivity | shift of the dose-response relation to the left by the Leu-9′-Ser mutation (increase in agonist sensitivity) ([1]; α4β2 receptor tested in oocytes, mutant vs WT): about 30 fold | EEG recordings of WT (heterozygous and WT mice; WT): unaffected | EEG response of a heterozygous mouse (heterozygous and WT mice; heterozygous): Rapid-burst discharges | amplitude of 6 Hz theta rhythm in a heterozygous mouse (heterozygous and WT mice; heterozygous): two-fold increased amplitude | effect on locomotor activity of WT mice ([2]; nicotine 0.02 mg/kg i.p., WT mice): no significant difference; also recorded: not affected | effect on locomotor activity of heterozygous knock-in mice ([2]; nicotine 0.02 mg/kg i.p., heterozygous mice, 5-15 min after injection): significant reduction of locomotor activity; also recorded: sharply reduces the level of activity | concentrations to which heterozygous cells respond relative to those activating receptors in wild type slices [4]: ten times lower | response of WT-derived cells ([5]; WT): remained silent or required much larger concentrations to be activated | response of neurons from transgenic mice ([5]; majority of neurons): responded with spontaneous bursts
